Here are results for 1 molecule from US12286418B2, “Compounds and methods for treating or preventing bacterial infections” (priority 2019, dated 2025).

One series concerns the target OXA-163 (Klebsiella pneumoniae, UniProt Q6XEC0, DEL214-217/S212D). Kind of series: Inhibition of other OXA enzymes (nitrocefin reporter): OXA-163. The format is biochemical, Enterobacteriaceae. Here is the method:
Compounds were tested for inhibition of a given OXA enzyme from hydrolyzing nitrocefin using a Tecan plate reader. […] A control with no compound was included in each run. For each compound concentration, the velocity of nitrocefin hydrolysis was determined at 482 nm and fit to the Morrison equation. […] The average Ki of separate experiments, each of which consisted of duplicate runs, is reported and error was quantified as the standard deviation.
The high sequence diversity of class D β-lactamases has made it difficult to find a class-wide inhibitor. The inhibition activity of CDD-97 was tested against other OXA-enzymes of varying sequence identity, to assess its spectrum of activity (Table 2). OXA-10 is regarded as the canonical OXA, however it is not a major clinical threat as it mainly hydrolyzes penicillins. OXA-58 is another carbapenemase unable to hydrolyze extended-spectrum cephalosporins like OXA-48. Both OXA-48 and OXA-58 are predominantly found in gram-negative bacteria, however OXA-48 is prevalent in the Enterobacteriaceae family (mainly Klebsiella pneumoniae), while OXA-58 is found in the Moraxellaceae family (mainly Acintobacter baumannii). While K. pneumoniae is more rampant in the clinics and most OXA-mediated carbapenem is due to OXA-48, A. baumannii nosocomial infections are a growing issue. OXA-163 is an OXA-48 like enzyme also prevalent in Enterobacteriaceae. […]

A further series has as its target OXA-48 (Klebsiella pneumoniae, UniProt Q6XEC0). Put plainly: Surface plasmon resonance binding to immobilized 6x-His-OXA-48. Also on record: His-tag (N, cleaved yes); made in house; host or cells: E. coli BL21(DE3), pET28a. The settings on record: SPR. Here is the method: 6×-His-OXA-48 was capture/amine-coupled on a Ni-NTA Chip at a density of ˜5000 RU. Running buffer was 10 mM HEPES pH 7.4, 150 NaCl, 50 mM NaHCO3, 0.005% Tween-20, 2% DMSO. Concentration gradients of each compound were created from 0-15 μM using OneStep Injections in at least triplicates for meropenem and CDD-97.
Synthon-derivatives were created, without DNA tags, based on high OXA-48 enrichment and minimal NTC enrichment. The activity of these derivatives was assessed using inhibition assays with purified OXA-48. Compounds were tested for the ability to inhibit OXA-48 from hydrolyzing nitrocefin, a chromogenic β-lactam substrate routinely used in β-lactamase inhibition assays. Nitrocefin contains a conjugated ring system that is readily hydrolyzed and produces a visible color shift from yellow to red upon hydrolysis (O'Callaghan, et al., 1972, Antimicrob. Agents Chemother. 1:283-288). The rate of nitrocefin hydrolysis in the presence of a constant amount of OXA-48 and increasing concentrations of a given compound of interest was monitored at 482 nm. These rates were plotted against compound concentration to determine the inhibition constant (Ki) against OXA-48. Compounds with promising activity were also assessed for binding using surface plasmon resonance (SPR). SPR was performed using 6×-His-OXA-48 enzyme that was amine-coupled on a Ni-NTA Chip. Meropenem, which covalently binds and inhibits OXA-48, was used as a positive control.

Another series has as its system E. coli MG1655. Put plainly: Accumulation assay in E. coli (LC-MS/MS). Type of series: cell-based. As to conditions: wildtype E. coli MG1655, 10 minutes incubation. Here is the method:
For the accumulation assay, the protocol from Richter, et al., 2017, Nature 545:299-304 was followed. An overnight culture of bacteria grown in LB Lennox, was inoculated into fresh media and grown to an OD600 of 0.5-0.6. Cells were pelleted, resuspended in 1× phosphate-buffered saline (PBS) and then incubated with the compound of interest for 10 minutes at 37°. After incubation, the OD600 was recorded to note if compounds affected cell growth and then the cultures were centrifuged down through a 9:1 mixture of silicone oil (viscosity=20 cST) to high temperature silicone oil which was cooled at −80°. Cell pellets were isolated and lysed by 3 cycles of freeze-thawing using liquid nitrogen and a 65° water bath. The cell lysate was isolated from the cell debris (in water and methanol) and then analyzed via mass spectrometry. […] Multiple reaction monitoring (MRM) was used to quantify these compounds. […] The concentrations of these compounds were calculated on the basis of their corresponding standard curves.
To determine the colony forming units (CFU) per mL based on the OD600, the OD600 of E. coli MG1655 culture in LB-Lennox was measured then the culture was diluted and plated to count colonies. Based on this, the CFU per mL for 1 O.D.600 (for MG1655 cells grown in LB-Lennox) was determined to be approximately 2.15×10^8 and this value was used for accumulation calculations. […]

Molecules are shown by their SMILES.

OXA-48, sequence (Q6XEC0 23-265, looked up): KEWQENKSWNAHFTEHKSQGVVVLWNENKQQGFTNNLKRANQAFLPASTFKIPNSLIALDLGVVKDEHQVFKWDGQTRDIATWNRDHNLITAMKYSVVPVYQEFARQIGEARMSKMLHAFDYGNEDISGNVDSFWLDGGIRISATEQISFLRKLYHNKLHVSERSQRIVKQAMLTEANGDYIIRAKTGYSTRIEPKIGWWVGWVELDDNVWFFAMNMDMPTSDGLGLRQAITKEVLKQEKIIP
OXA-163, sequence (Q6XEC0 23-211, added parts left off, stated change not applied): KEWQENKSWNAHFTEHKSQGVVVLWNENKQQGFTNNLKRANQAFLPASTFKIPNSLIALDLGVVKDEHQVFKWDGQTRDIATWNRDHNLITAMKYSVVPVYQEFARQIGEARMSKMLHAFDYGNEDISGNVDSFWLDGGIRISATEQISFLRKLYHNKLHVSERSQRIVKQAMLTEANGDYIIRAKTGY

`CCOc1ccccc1N1CCN(c2ncnc(N3CCC(C(=O)O)CC3)n2)CC1` [CDD-97, 1-(4-(4-(2-ethoxyphenyl)piperazin-1-yl)-1,3,5-triazin-2-yl)piperidine-4-carboxylic acid] gave a Ki at OXA-163 of 440 ± 20 nM. Moreover, the “KD fold lower (weaker) than that of Meropenem” value at OXA-48 (OXA-48) is recorded as approximately 3 fold. Besides, the Kd on OXA-48 (immobilized His-OXA-48) turned out to be 1200 ± 4 nM. In addition, the “accumulation in cells, fold lower levels compared to tetracycline” value in the series with E. coli MG1655 came to 20 fold.
